{
  "source": "patent US12594267B2",
  "about": "“Capsid inhibitors for the treatment of HIV” (Gilead Sciences, Inc., priority 2018, dated 2026)",
  "experiment": "PK after subcutaneous administration of solutions in dogs",
  "type": "in vivo, Beagle dog",
  "experimental": "Formulations containing the compound of Formula (Ia) were prepared as aqueous solutions or oral formulations and administered subcutaneously to rats, dogs, cynomolgus monkey, and/or rhesus monkey.\nA solution of the compound of Formula (Ia) in 10% ethanol, 13% water, and 77% PEG 200 (400 mg/mL) was prepared. The solution was administered subcutaneously to dogs at a dose of 12 mg/kg and rats at a dose of 50 mg/kg and the pharmacokinetic (PK) profile was determined. […] In both species, plasma concentrations of the compound of Formula (Ia) were maintained above the target trough concentration of 20 nM (corresponding to an IQ of 5) for at least 84 days (12 weeks).\nA solution of the compound of Formula (Ia) in 15% water and 85.0 PEG 300 (400 mg/mL) was prepared. The solution was administered subcutaneously to male beagle dogs at a dose level of 12 mg/kg and dose volume of […] and the pharmacokinetic (PK) profile was determined.\nA solution of the compound of Formula (a) sodium salt in water and 300 (300 mg/mL) was prepared that contained 22.6% water/50% PEG 300/1.1% NaOH/26.3% Formula (Ia). The solution was administered subcutaneously to male beagle dogs at a dose level of 12 mg/kg and dose volume of […] and the pharmacokinetic (PK) profile was determined.\nA 300 mg/ml solution of a compound of Formula (Ia) having 9.8 w/w % water, 65.0 w/w % PEG 300, and 25.2 w/w % of the compound of Formula (Ia) was prepared. The solution was administered subcutaneously to rats at a dose of 50 mg/kg and to dogs at a dose of 12 mg/kg and the pharmacokinetic (PK) profile was determined. […] In the rat, plasma concentrations of the compound of Formula (Ia) were maintained above the target trough concentration of 20 nM for at least 168 days (24 weeks). In the dog, plasma concentrations of the compound of Formula (Ia) were maintained above the target trough concentration of 20 nM for at least 84 days (12 weeks).\n(§1) A 150 mg/ml solution of a compound of Formula (Ia) having 27.92 w/w % water, 58.04 w/w % PEG 300, 13.47 w/w % of a compound of Formula (Ia), and 1.1 w/w % NaOH was prepared. The solution was administered subcutaneously to rats at a dose of 50 mg/kg and to dogs at a dose of 12 mg/kg and the pharmacokinetic (PK) profile was determined. […] In the rat, plasma concentrations of the compound of Formula (Ia) were maintained above the target trough concentration of 20 nM for at least 126 days (18 weeks). In the dog, plasma concentrations of the compound of Formula (Ia) were maintained above the target trough concentration of 20 nM for at least 56 days (8 weeks).\nas §1, with “300” for “150”, “23.2” for “27.92”, “50.0” for “58.04”, “25.7” for “13.47”\nA 50 mg/ml solution of a compound of Formula (Ia) having 30.07 w/w % water, 64.40 w/w % PEG 300, 4.68 w/w % of a sodium salt of the compound of Formula (Ia), and 0.85 w/w % poloxamer 188 was prepared. The solution was administered subcutaneously to rats at a dose of 50 mg/kg and to dogs at a dose of 6 mg/kg and the pharmacokinetic (PK) profile was determined. […] In the rat, plasma concentrations of the compound of Formula (Ia) were maintained above the target trough concentration of 20 nM for at least 28 days (4 weeks). In the dog, plasma concentrations of the compound of Formula (Ia) were maintained above the target trough concentration of 20 nM for at least 14 days (2 weeks). […]",
  "key": {"[1]": {"conditions": "beagle, dog, plasma, sc, 12 mg/kg, SC 12 mg/kg, 400 mg/mL solution in 10% ethanol, 13% water, 77% PEG 200, mean ± SD, n=3"}, "[2]": {"conditions": "dog, SC 12 mg/kg, 150 mg/mL solution (w/w %: 27.92 water, 58.04 PEG 300, 13.47 Formula (Ia), 1.1 NaOH), mean ± SD, n=3"}},
  "data": [
    {"smiles": "CC(C)(C#Cc1ccc(-c2ccc(Cl)c3c(NS(C)(=O)=O)nn(CC(F)(F)F)c23)c([C@H](Cc2cc(F)cc(F)c2)NC(=O)Cn2nc(C(F)(F)F)c3c2C(F)(F)[C@@H]2C[C@H]32)n1)S(C)(=O)=O", "note": "[Formula (Ia), N—((S)-1-(3-(4-chloro-3-(methylsulfonamido)-1-(2,2,2-trifluoroethyl)-1H-indazol-7-yl)-6-(3-methyl-3-(methylsulfonyl)but-1-yn-1-yl)pyridin-2-yl)-2-(3,5-difluorophenyl)ethyl)-2-((3bS,4aR)-5,5-difluoro-3-(trifluoromethyl)-3b,4,4a,5-tetrahydro-1H-cyclopropa[3,4]cyclopenta[1,2-c]pyrazol-1-yl)acetamide]", "values": [
      {"measurement": "AUC(0-t)", "setting": "beagle, dog, plasma, sc, 12 mg/kg, dog, SC 12 mg/kg, 400 mg/mL solution in 10% ethanol, 13% water, 77% PEG 200, mean ± SD, n=3, read-out: AUC0-140d", "value": "111 ± 14", "unit": "µM·h"},
      {"measurement": "concentration at 84 d", "setting": "beagle, dog, plasma, sc, 12 mg/kg, dog, SC 12 mg/kg, 400 mg/mL solution in 10% ethanol, 13% water, 77% PEG 200, mean ± SD, n=3, read-out: C84d", "value": "23.4 ± 5.7", "unit": "nM"},
      {"measurement": "Cmax", "setting": "[1]", "value": "107 ± 13", "unit": "nM"},
      {"measurement": "Tmax", "setting": "[1]", "value": 14, "unit": "days"},
      {"measurement": "Plasma concentration", "setting": "dog #1, 0 h, SC 12 mg/kg, 400 mg/mL in 15% water/85% PEG 300", "value": "BLQ"},
      {"measurement": "Plasma concentration", "setting": "dog #1, 1.0 h, SC 12 mg/kg, 400 mg/mL in 15% water/85% PEG 300", "value": "BLQ"},
      {"measurement": "Plasma concentration", "setting": "dog #2, 0 h, SC 12 mg/kg, 400 mg/mL in 15% water/85% PEG 300", "value": "BLQ"},
      {"measurement": "Plasma concentration", "setting": "dog #3, 0 h, SC 12 mg/kg, 400 mg/mL in 15% water/85% PEG 300", "value": "BLQ"},
      {"measurement": "Time plasma concentrations maintained above the target trough concentration of 20 nM", "setting": "dog, SC 6 mg/kg, 50 mg/mL solution (w/w %: 30.07 water, 64.40 PEG 300, 4.68 sodium salt of Formula (Ia), 0.85 poloxamer 188)", "value": "at least 14 days"},
      {"measurement": "Time plasma concentrations maintained above the target trough concentration of 20 nM", "setting": "dog, SC 6 mg/kg, 75 mg/mL solution (w/w %: 29.21 water, 62.55 PEG 300, 6.97 sodium salt of Formula (Ia), 1.68 poloxamer 188)", "value": "at least 21 days"},
      {"measurement": "Time plasma concentrations maintained above the target trough concentration of 20 nM", "setting": "dog, SC 6 mg/kg, 100 mg/mL solution (w/w %: 28.36 water, 60.73 PEG 300, 9.23 sodium salt of Formula (Ia), 1.68 poloxamer 188)", "value": "at least 14 days"},
      {"measurement": "AUC0-14d", "setting": "dog, SC 6 mg/kg, 100 mg/mL solution (w/w %: 28.36 water, 60.73 PEG 300, 9.23 sodium salt of Formula (Ia), 1.68 poloxamer 188), mean ± SD, n=3", "value": "104 ± 26", "unit": "µM·h"},
      {"measurement": "Time plasma concentrations maintained above the target trough concentration of 20 nM", "setting": "dog, SC 6 mg/kg, 125 mg/mL solution (w/w %: 27.51 water, 58.92 PEG 300, 11.48 sodium salt of Formula (Ia), 2.09 poloxamer 188)", "value": "at least 14 days"},
      {"measurement": "Time plasma concentrations maintained above the target trough concentration of 20 nM", "setting": "dog, SC 6 mg/kg, 150 mg/mL solution (w/w %: 26.6 water, 56.97 PEG 300, 13.39 Formula (Ia), 0.57 NaOH, 2.49 poloxamer 188)", "value": "at least 56 days"},
      {"measurement": "Time plasma concentrations maintained above the target trough concentration of 20 nM", "setting": "dog, SC 6 mg/kg, 300 mg/mL solution (w/w %: 21.97 water, 47.05 PEG 300, 25.21 Formula (Ia), 1.08 NaOH, 4.69 poloxamer 188)", "value": "at least 56 days"},
      {"measurement": "AUC0-84d", "setting": "dog, SC 6 mg/kg, 300 mg/mL solution (w/w %: 21.97 water, 47.05 PEG 300, 25.21 Formula (Ia), 1.08 NaOH, 4.69 poloxamer 188), mean ± SD, n=3", "value": "65.4 ± 21.5", "unit": "µM·h"},
      {"measurement": "Time plasma concentrations maintained above the target trough concentration of 20 nM", "setting": "dog, SC 12 mg/kg, 150 mg/mL solution (w/w %: 27.92 water, 58.04 PEG 300, 13.47 Formula (Ia), 1.1 NaOH)", "value": "at least 56 days"},
      {"measurement": "AUC0-28d", "setting": "[2]", "value": "137.0 ± 38", "unit": "µM·h"},
      {"measurement": "AUC0-126d", "setting": "[2]", "value": "196 ± 31", "unit": "µM·h"},
      {"measurement": "Time plasma concentrations maintained above the target trough concentration of 20 nM", "setting": "dog, SC 12 mg/kg, 300 mg/mL solution (w/w %: 9.8 water, 65.0 PEG 300, 25.2 Formula (Ia))", "value": "at least 84 days"},
      {"measurement": "Time plasma concentrations maintained above the target trough concentration of 20 nM", "setting": "dog, SC 12 mg/kg, 300 mg/mL solution (w/w %: 23.2 water, 50.0 PEG 300, 25.7 Formula (Ia), 1.1 NaOH)", "value": "at least 56 days"},
      {"measurement": "Time plasma concentrations maintained above the target trough concentration of 20 nM", "setting": "dog, SC 12 mg/kg, 400 mg/mL solution in 10% ethanol, 13% water, 77% PEG 200", "value": "at least 84 days"},
      {"measurement": "concentration at 3 h", "setting": "male, beagle, dog, plasma, sc, 12 mg/kg, dog #1, 3.0 h, SC 12 mg/kg, 400 mg/mL in 15% water/85% PEG 300", "value": 1.2, "unit": "nM"},
      {"measurement": "concentration at 8 h", "setting": "male, beagle, dog, plasma, sc, 12 mg/kg, dog #1, 8.0 h, SC 12 mg/kg, 400 mg/mL in 15% water/85% PEG 300", "value": 10.6, "unit": "nM"},
      {"measurement": "concentration at 24 h", "setting": "male, beagle, dog, plasma, sc, 12 mg/kg, dog #1, 24.0 h, SC 12 mg/kg, 400 mg/mL in 15% water/85% PEG 300", "value": 19.8, "unit": "nM"},
      {"measurement": "concentration at 48 h", "setting": "male, beagle, dog, plasma, sc, 12 mg/kg, dog #1, 48.0 h, SC 12 mg/kg, 400 mg/mL in 15% water/85% PEG 300", "value": 54.6, "unit": "nM"},
      {"measurement": "concentration at 72 h", "setting": "male, beagle, dog, plasma, sc, 12 mg/kg, dog #1, 72.0 h, SC 12 mg/kg, 400 mg/mL in 15% water/85% PEG 300", "value": 62.8, "unit": "nM"},
      {"measurement": "concentration at 96 h", "setting": "male, beagle, dog, plasma, sc, 12 mg/kg, dog #1, 96.0 h, SC 12 mg/kg, 400 mg/mL in 15% water/85% PEG 300", "value": 58.9, "unit": "nM"},
      {"measurement": "concentration at 168 h", "setting": "male, beagle, dog, plasma, sc, 12 mg/kg, dog #1, 168 h, SC 12 mg/kg, 400 mg/mL in 15% water/85% PEG 300", "value": 71.9, "unit": "nM"}
    ]}
  ]
}
